Experimental data reported in ChEMBL document CHEMBL1140151, “Alpha,beta-methylene-2'-deoxynucleoside 5'-triphosphates as noncleavable substrates for DNA polymerases: isolation, characterization, and stability studies of novel 2'-deoxycyclonucleosides, 3,5'-cyclo-dG, and 2,5'-cyclo-dT” (J Med Chem, 2008).
Active and inactive are the calls of the source. No cut-off for these calls is given here.

Experiments:
[1] = target: T1, DNA polymerase beta (Homo sapiens, UniProt P06746); experiment: Inhibition of human DNA polymerase beta
[2] = target: T1, DNA polymerase beta; experiment: Inhibition of human DNA polymerase beta assessed as inhibition of dCTP incorporation by gap filling assay

| Structure (SMILES) | Ki [1] | Activity [2] |
| --- | --- | --- |
| Nc1ncnc2c1ncn2[C@H]1C[C@H](O)[C@@H](COP(=O)(O)CP(=O)(O)OP(=O)(O)O)O1 | 5000 nM | – |
| Cc1cn([C@H]2C[C@H](O)[C@@H](COP(=O)(O)CP(=O)(O)OP(=O)(O)O)O2)c(=O)[nH]c1=O | 600 nM | – |
| Nc1nc2c(ncn2[C@H]2C[C@H](O)[C@@H](COP(=O)(O)CP(=O)(O)OP(=O)(O)O)O2)c(=O)[nH]1 | 1000 nM | – |
| Nc1ccn([C@H]2C[C@H](O)[C@@H](COP(=O)(O)CP(=O)(O)OP(=O)(O)O)O2)c(=O)n1 | 900 nM | Active |
